The text below walks through data of PMC9861386, “N-Heterocyclic Carbene-Iridium Complexes as Photosensitizers for In Vitro Photodynamic Therapy to Trigger Non-Apoptotic Cell Death in Cancer Cells” (Molecules, 2023).

Series [1] is described as follows: Octanol–water partition coefficient, shake-flask method. The series is classed as physicochemical. Conditions: n-octanol/water, UV absorbance 260 nm. As to the method:
Lipophilicities of all complexes have been measured by the classical shake-flask method, using UV absorption. The Log p values range from -0.063 to 0.861 in increasing order –0.063 (4a), 0.035 (4d), 0.519 (4f), 0.581 (4c), 0.842 (4b), 0.847 (4e) and 0.861 (4g).
The octanol–water partition coefficients (P) of 4a to 4g were determined using a shake-flask method. Water (100 mL, distilled after milli-Q purification) and n-octanol (100 mL, Sigma-Aldrich, St. Louis, MO, USA, ACS spectrophotometric grade, ≥99%) were shaken together for 24 h to allow saturation of both phases. Stock solutions of the […] compounds (50 μM) were prepared in the aqueous phase and aliquots (1 mL) of each of these stock solutions were then added to an equal volume of the n-octanol phase. The resultant biphasic solutions were mixed for 1 h and then centrifuged (3000× g, 5 min) (Eppendorf Centrifuges 5415R and 5804R) to separate the phases. The concentrations of the complexes in the organic and aqueous phases were then determined using UV absorbance spectroscopy (260 nm). Log P was defined as the logarithm of the ratio of the concentrations of the studied complex in the organic and aqueous phases (Log P = Log {[Ir(org)]/[Ir(aq)]}; values reported are the means of at least two separate determinations).

Series [2] can be described thus: Photophysical measurements (emission, quantum yield, lifetime) in CH2Cl2. The conditions noted are these: CH2Cl2, 298 K, references POPOP and quinine sulfate. The series is classed as physicochemical. An excerpt: All complexes have been photophysically investigated at standard pressure in CH2Cl2 at 298 K. The absorption spectra of complexes 4a to 4g in CH2Cl2 at 298 K are shown in Figure 7. The strong absorption bands below 300 nm correspond to spin-allowed ^1π→π* electronic ligand-centered (LC) transitions. The structureless bands at 300–360 nm are attributed to ppy-to-ppy ^1π→π* […] charge transfer (LLCT) and Ir-to-ppy metal-to-ligand charge transfer (MLCT) transitions. The lowest-lying bands in the visible region can be assigned to both singlet and triplet MLCT transitions. No significant difference in the absorption spectra of complexes 4a to 4g can be found in the CH2Cl2 solution.
The luminescence spectra of complexes 4a to 4f in CH2Cl2 at 298 K are shown in Figure 8 and their photophysical data are summarized in Table 1.
The relative emission quantum yields (ΦPL) of these complexes in CH2Cl2 at room temperature were measured by using POPOP and quinine sulfate in 1 N H2SO4 as standard references (ΦPL = 97% and ΦPL = 54%, respectively). […] In addition, the excited-state lifetimes of complexes 4a to 4d are in the range of 166.4–190.7 ns, indicating the phosphorescence nature of the emissions.
UV/Vis absorption spectra were recorded at RT on solutions contained in quartz cuvettes (optical pathlength 1 cm, Hellma® (HELLMA, Müllheim, Germany)) with a PerkinElmer® (PerkinElmer, Waltham, MA, USA) UV/VIS/NIR spectrophotometer Lambda 950 and a PerkinElmer® detector UV/VIS/NIR Accessory 2D Detector Module.
Fluorescence and phosphorescence emission spectra were obtained with a HORIBA JOBIN YVON (Bensheim, Germany) fluromax-4 and spectrofluorometer.
Luminescence quantum yields were measured according to the method of Demas and Crosby, on solution samples at RT. The quantum yield is defined as: ΦS=ΦR*As/Ar* ηs/ηr^2^2 where ΦS is the quantum yield of the sample, ΦR is the known quantum yield of the reference standard at the area subtended by the emission band (on a wavelength scale) and η is the refractive index of the solvent used for the preparation of the solution. As (related to the sample) and Ar (related to the reference) must be excitation wavelength. Different standards were selected depending on the spectral region of the interest: POPOP in hexane (Φ = 97%) and QUININNE in water (Φ = 54%).
Fluorescence lifetime measurements were performed by an Edinburgh FLS920 spectrofluorometer equipped with a TCC900 card for data acquisition in time-correlated single-photon counting experiments (0.5 ns time resolution) with a D2 lamp and an LDH-P-C-405 pulsed diode laser. The estimated experimental error was 2 nm on the band maximum (5% on the lifetime, 10% on the fluorescence quantum yield).

Series [3] deals with PC-3. The experiment in a line: MTT cytotoxicity, 48 h. The class given is cell-based, human. Conditions: for GI50: MTT; for SI (PC-3): NIH3T3 vs PC-3. As to the method: (§1) The in vitro cytotoxicity of iridium(III) complexes 4a–4g was first evaluated against cancer cell lines PC-3 (human prostate) and T24 (human bladder) and the non-cancerous NIH-3T3 cell line (murine fibroblasts) using colorimetric MTT tests after 48 h of treatment. The dimeric iridium precursor [IrCl(ppy)2]2 was used as reference and the results are summarized in Table S1 (Supplementary Materials) in the supporting information file. […] The complexes were also evaluated for their cytotoxicity towards healthy NIH-3T3 cells, giving access to the selectivity index (SI). […] No linear correlation between lipophilicity and anti-cancer activity was found for the iridium(III) complexes 4a–4g. For the following biological studies, we focused on the C1 series.
(§2) Table S1. Cytotoxic activity of iridium(III) NHC complexes 4a−4g expressed as GI50 (μM) values towards selected cancer and normal cell lines as determined by MTT assay (48 h).a Complex PC-3 T24 NIH3T3 SI (PC-3) SI (T24) […]
(§3) a GI50 values correspond to the concentration of complexes causing 50 % inhibition of cell growth.
(§4) Data were obtained from three independent experiments.
(§5) The cytotoxic effects of the NHC precursors, the imidazolium salts, which represents the potential hydrolysis and/or degradation products of the complexes, have been published before [SI-1, SI-2]. […]

Series [4] has as its system T24. The experiment in a line: MTT cytotoxicity, 48 h. The conditions noted are these: for GI50: MTT; for SI (T24): NIH3T3 vs T24. The class given is cell-based, human. As to the method: as §1, §2, §3, §4, §5
The subject of series [5] is NIH3T3. Put plainly: MTT cytotoxicity, 48 h. The class given is cell-based, murine. As to the method:
as §1, §2, §3, §4, §5

Series [6] has as its system MCF7/FasR cells. Put plainly: Cell death with or without pan-caspase inhibitor z-VAD-fmk, MTT. The class given is cell-based, human. The conditions noted are these: 72 h. From the text:
To determine the mechanism of cell death, we used MCF7 cells transfected to express the human Fas receptor (FasR) or doubly transfected to express the human Fas receptor and human Bcl-xL [75]. Since MCF7 cells express the TNF receptor endogenously, this allowed the study of both Fas- and TNFα-mediated apoptosis in the same cell model to assess whether cell death was dependent on the Bcl-2 family of mitochondrial proteins such as Bcl-xL. […] This is consistent with findings that death receptors such as FasR and TNFR can mediate apoptosis through both the extrinsic pathway (mitochondria-independent by directly activating executioner caspases via upstream caspase-8) and the intrinsic (mitochondrial) pathway controlled by the Bcl-2 family of proteins.
We next evaluated the effect of the pan-caspase inhibitor z-VAD-fmk on caspase signaling. As expected, the treatment with z-VAD-fmk rendered MCF7/FasR cells resistant to TNFα-induced PARP and caspase-7 processing (Figure 14A) and to the loss of cell viability (Figure 14B).
A tetrazolium-based MTT reagent (3-(4,5-dimethylthiazol-2-yl)-2,5-diphenyltetrazolium bromide) was used to determine cell viability, as previously described. After 72 h of treatment at 37 °C and 5% CO2, cells were incubated with 25 μL MTT solution (5 mg/mL; Sigma-Aldrich) for 4 h. After solubilization with 500 μL of lysis buffer (DMSO), formazan was quantified by spectrophotometry with a microplate reader at 570 nm absorbance (ClarioSTAR, BMG LabTech, Champigny-sur-Marne, France). […] All results were calculated from data obtained in at least three independent experiments.
Figure 11 Bcl-xL and z-VAD-fmk inhibited by Fas- or TNFα-induced cell death in MCF7 cells. […] Cell death was assessed by MTT assay. […]
Figure 14 Evaluation of apoptotic biomarkers. […] (B) Cell viability was evaluated in duplicate samples. Data are expressed as percent (%) of untreated cells and are the means of 3 independent experiments (***, p < 0.0001, NS, not significant).

The subject of series [7] is MCF7/FasR and MCF7/FasR/Bcl-xL cells. Put plainly: Bcl-xL dependence of cell death, MTT in MCF7/FasR vs MCF7/FasR/Bcl-xL. The class given is cell-based, human. Conditions: complexes: 458 nm irradiation, 10 nM to 1 µM, TNFα 100 ng/mL, 72 h. From the text: To determine the mechanism of cell death, we used MCF7 cells transfected to express the human Fas receptor (FasR) or doubly transfected to express the human Fas receptor and human Bcl-xL [75]. Since MCF7 cells express the TNF receptor endogenously, this allowed the study of both Fas- and TNFα-mediated apoptosis in the same cell model to assess whether cell death was dependent on the Bcl-2 family of mitochondrial proteins such as Bcl-xL. […]
Mitochondrial outer membrane permeabilization (MOMP), which leads to rapid cell death through the release of mitochondrial proteins (including cytochrome c) that activate executioner caspases, is the critical event in intrinsic apoptosis. […] We then assessed whether the cell death induced by our complexes could be abrogated by the overexpression of Bcl-xL.
A tetrazolium-based MTT reagent (3-(4,5-dimethylthiazol-2-yl)-2,5-diphenyltetrazolium bromide) was used to determine cell viability, as previously described. […] After solubilization with 500 μL of lysis buffer (DMSO), formazan was quantified by spectrophotometry with a microplate reader at 570 nm absorbance (ClarioSTAR, BMG LabTech, Champigny-sur-Marne, France). […] All results were calculated from data obtained in at least three independent experiments. […]
Figure 13 Evaluation of apoptotic biomarkers. […] (B) MTT, ATP and GSH assays were evaluated in duplicate samples. […]

For series [8] the test system is unchanged. The experiment in a line: GSH quantification (GSH-Glo). Conditions: complex 4a all doses with 458 nm irradiation; TNFα 100 ng/mL; 72 h. The series is classed as cell-based, human. As to the method:
ATP and glutathione (GSH) contents were measured with the Promega CellTiter-Glo (Cat#G7570) and GSH-Glo (cat#6911) luminescent assays, respectively, according to the manufacturer’s recommendations.
Figure 13 Evaluation of apoptotic biomarkers. MCF7/FasR and MCF7/FasR/Bcl-xL cells were irradiated at 458 nm in presence of the indicated concentration of complex 4a or treated with […] TNFα for 72 h. (A) Cytosolic extracts from MCF7/FasR and MCF7/FasR/Bcl-xL cells were separated by SDS-PAGE and probed with anti-PARP, anti-caspase-7 and anti-caspase-8. Migrations indicated are: full-length PARP p113, cleaved PARP p89, full-length caspase-7 and full-length caspase-8. (B) MTT, ATP and GSH assays were evaluated in duplicate samples. Data are expressed as percent (%) of untreated cells and are the means of 3 independent experiments (***, p < 0.0001, NS, not significant).

Where a SMILES comes first, the peptide text is derived from it. The star is where a group is joined. Cbz = O=C(OCc1ccccc1)*; CH2F = FC*

As to `F[P-](F)(F)(F)(F)F.c1ccc(C[n+]2ccn3[c]2[Ir-3]24([c]5ccccc5-c5cccc[n+]52)([c]2ccccc2-c2cccc[n+]24)[c]2n(cc[n+]2Cc2ccccc2)CC3)cc1` [Complex 4e], the lipophilicity (Log P) in series [1] is reported as 0.847. Also, in series [2], the “ΦPL emission quantum yield” value is reported as 0.2%. Further, in series [3], the GI50 was determined as 250 nM and the “SI (PC-3)” value was found to be 10.0. In addition, in series [4], the GI50 was determined as 290 nM and the “SI (T24)” value worked out at 8.6. For the same compound, the GI50 in series [5] was found to be 2500 nM.
Turning to `CC(C)C[n+]1ccn2[c]1[Ir-3]13([c]4ccccc4-c4cccc[n+]41)([c]1ccccc1-c1cccc[n+]13)[c]1n(cc[n+]1CC(C)C)CC2.F[P-](F)(F)(F)(F)F` [Complex 4f], in series [1], the “Log P” value is on record as 0.519. For the same compound, the “ΦPL emission quantum yield” value in series [2] amounted to 0.2%. Further, in series [3], growth was halved (GI50) at 910 nM and the “SI (PC-3)” value worked out at 4.5. In series [4], it took 910 nM to inhibit growth by half (GI50) and the “SI (T24)” value stood at 4.5. The compound further came in with a GI50 in series [5] of 4100 nM.
With `COC(=O)C[C@H](NC(=O)[C@H](C)NC(=O)[C@@H](NC(=O)OCc1ccccc1)C(C)C)C(=O)CF` [z-VAD-fmk, reference compound] (Cbz-Val-Ala-Asp(OMe)-CH2F), the “effect on cell death induced by Fas antibody and TNFα” value in series [6] (10 µM z-VAD-fmk, MCF7/FasR and MCF7/FasR/Bcl-xL) is “completely abolished cell death”.
On to TNFα, for which, in series [7], the “effect of Bcl-xL overexpression on loss of cell viability” value is listed as “strongly inhibited by Bcl-xL”. Besides, in series [8], the “level of reduced GSH” value is “decreased”. For the same compound, in series [6] (TNFα 100 ng/mL, MCF7/FasR, MTT), the “reduction in cell viability” value is 65–85%.

As a reminder, the Log P is the decadic logarithm of the partition coefficient of the neutral form, usually between octanol and water. A higher Log P goes with a more lipophilic compound. In general, GI50 refers to the concentration at which growth is held to half of that of the control. Read a high GI50 as lower sensitivity of the cells.
